{
  "source": "patent US20150105433A1",
  "about": "“TREATING VIRAL INFECTIONS HAVING VIRAL RNAs TRANSLATED BY A NON-IRES MEDIATED MECHANISM” (THE UAB RESEARCH FOUNDATION, priority 2012, published 2015)",
  "key": {"RPS25 mRNA": {"tested_on": "RPS25 mRNA", "experiment": "RPS25 siRNA knockdown, northern analysis of RPS25 mRNA level", "format": "cell-based, human", "settings": "Huh7.13 cells, transient siRNA transfection, 72 hours, RPS25 mRNA normalized to β-actin mRNA, relative to control", "procedure": "(§1) The day before transfection, 5×10^4 HeLa cells were seeded into 24-well plates. Once the cells reached 90% confluency, transfection of dual luciferase reporters was done using Lipofectamine 2000 (Invitrogen) according to the manufacturer's recommendations using 0.4 μg DNA per well. Cells were harvested for luciferase analysis after 24 hours. Double stranded RPS25 siRNAs, 5′-GGACUUAUCAAACUGGUUUtt-3′ (SEQ ID NO:3) and 5′-AAACCAGUUUGAUAAGUCCtt-3′ (SEQ ID NO:4) (Ambion, siRNA ID #142220), were used to knock down RPS25 in Huh7 cells. The Dicector™ DS (IDT; Coralville, Iowa) scrambled negative control duplex was used as a negative control. siRNA complexes were prepared in opti-MEM (Invitrogen) with 5 μl siPORT NeoFX transfection agent to a final siRNA concentration of 0.375 μM according to the manufacturer's specifications. siRNA complexes were plated and overlaid with 2×10^5 Huh7.13 cells in antibiotic-free media. The transfection media was replaced with complete media after 24 hours.\nTotal RNA was harvested with TRIzol (Invitrogen) according to the manufacturer's protocol from shRNA lentiviral transduced cells. […]"}, "HCV (JFH1, genotype 2a)": {"tested_on": "HCV (JFH1, genotype 2a)", "experiment": "HCV amplification in RPS25 knockdown Huh7.13 cells, quantitative western analysis for NS5A", "format": "cell-based, hepatitis C virus", "settings": "Huh7.13 cells infected with HCV at low MOI, 72 hours after infection, versus non-targeting control siRNA", "procedure": "as §1\nThe HCV infection was carried out by inoculating Huh7.13 cells with 1 ml of culture medium from the HCV producer cell line Huh7 JFH1 HCV (genotype 2a). […]\nCells were lysed in E1 lysis buffer with 0.1% SDS. […] Signals were detected using flororchrome-conjugated secondary antibody for quantitative western blotting using the Odyssey scanner and software (LI-COR; Lincoln, Nebr.)."}},
  "data": [
    {"substance": "siRNA that targets RPS25: Double stranded RPS25 siRNAs 5′-GGACUUAUCAAACUGGUUUtt-3′ (SEQ ID NO:3) and 5′-AAACCAGUUUGAUAAGUCCtt-3′ (SEQ ID NO:4), Ambion (chain 1 GGACUUAUCAAACUGGUUUTT; chain 2 AAACCAGUUUGAUAAGUCCTT; chemistry not given here)", "values": [
      {"measurement": "RPS25 knockdown effectiveness (RPS25 mRNA level)", "setting": "RPS25 mRNA", "value": "over 95%"},
      {"measurement": "HCV NS5A protein expression (HCV amplification)", "setting": "HCV (JFH1, genotype 2a)", "value": "not detected"}
    ]}
  ]
}
